Key:
THP-1 = test: Cell growth inhibition assay (CellTiter-Glo), THP-1; format: cell-based, human; conditions: THP-1 cells, 4 days; for GI50: Homo sapiens, 96 h, half-maximal growth inhibition; for THP-1 TGI: total growth inhibition
Method in brief: (§1)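 ATP content was quantified with CellTiter-Glo after 4-day compound treatment (top 10 μM, 3-fold steps) at 37 °C. Readings were background- and day-0-corrected, scaled so vehicle equals 100% and medium equals −100%. Four-parameter fits gave half-maximal (IC50) and total growth inhibition concentrations.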

MV-4-11 = test: Cell growth inhibition assay (CellTiter-Glo), MV-4-11; format: cell-based, human; conditions: MV-4-11 cells, 4 days; for GI50: Homo sapiens, MV4-11, 96 h, half-maximal growth inhibition; for MV-4-11 TGI: total growth inhibition
Method in brief: as §1

BRD3 = BRD3 (Homo sapiens (Human), UniProt Q15059); test: TR-FRET in-vitro binding assay for BRD3; conditions: 45 nM His-Brd3(20-477), acetyl-histone H4 (AcK 5, 8, 12, 16) peptide
Sequence of BRD3 (Q15059 20-477): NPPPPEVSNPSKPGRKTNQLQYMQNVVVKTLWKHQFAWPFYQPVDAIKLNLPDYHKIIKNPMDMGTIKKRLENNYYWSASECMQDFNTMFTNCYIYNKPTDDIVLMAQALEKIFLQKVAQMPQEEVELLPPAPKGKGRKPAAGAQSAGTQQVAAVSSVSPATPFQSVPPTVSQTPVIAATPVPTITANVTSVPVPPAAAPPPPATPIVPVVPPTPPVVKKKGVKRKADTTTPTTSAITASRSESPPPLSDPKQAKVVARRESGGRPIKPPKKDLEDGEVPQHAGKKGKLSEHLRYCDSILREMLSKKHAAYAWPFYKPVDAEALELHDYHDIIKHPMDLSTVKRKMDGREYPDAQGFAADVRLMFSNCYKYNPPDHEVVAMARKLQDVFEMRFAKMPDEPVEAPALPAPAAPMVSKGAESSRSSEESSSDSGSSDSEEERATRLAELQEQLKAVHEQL
Method in brief: (§2)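 Binding is detected by TR-FRET following incubation for 35 minutes at 30° C.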

BRD2 = BRD2 (Homo sapiens (Human), UniProt P25440); test: TR-FRET in-vitro binding assay for BRD2; conditions: 45 nM His-Brd2(60-472), acetyl-histone H4 (AcK 5, 8, 12, 16) peptide
Sequence of BRD2 (P25440 60-472): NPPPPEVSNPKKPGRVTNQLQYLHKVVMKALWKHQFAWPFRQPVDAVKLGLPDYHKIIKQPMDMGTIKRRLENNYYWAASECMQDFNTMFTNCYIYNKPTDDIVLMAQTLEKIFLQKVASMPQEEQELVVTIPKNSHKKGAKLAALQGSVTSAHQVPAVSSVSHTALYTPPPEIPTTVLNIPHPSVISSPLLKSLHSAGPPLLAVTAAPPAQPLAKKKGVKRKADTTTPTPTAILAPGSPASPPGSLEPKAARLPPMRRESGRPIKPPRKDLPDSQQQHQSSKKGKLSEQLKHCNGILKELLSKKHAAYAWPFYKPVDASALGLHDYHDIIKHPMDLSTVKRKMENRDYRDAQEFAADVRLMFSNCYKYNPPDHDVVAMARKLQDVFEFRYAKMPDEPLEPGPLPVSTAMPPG
Experimental: TR-FRET In-Vitro Binding Assays for BRD2, BRD3, and BRD4: All assays were performed in 384-well microtiter plates. […] Liquid handling and incubation steps were done on an Innovadyne Nanodrop Express equipped with a robotic arm (Thermo CatX, Perkin Elmer/Caliper Twister II) and an incubator (Liconic STX40, Thermo Cytomat 2C450). The assay plates were prepared by addition of 50 nl per well of compound solution in 90% DMSO HummingBird nanodispenser (Zinsser Analytic). […] Reactions were incubated at 30° C. for 35 minutes. […] After 35 minutes incubation at 30° C., plates were measured in a Perkin Elmer EnVision multilabel reader. […] The stock solutions were stored at […] if not used immediately. For the test procedure the vials were defrosted and identified by a scanner whereby a working sheet was generated that guided the subsequent working steps. Compound dilutions were made in 96 well plates. This format enabled the assay of maximally […] at 8 concentrations (single points) including 4 reference compounds, if desired (known BET inhibitors from the prior art, for this and other assays of the type disclosed herein). The dilution protocol included the production of “pre-dilution plates”, “master plates” and “assay plates”. Polypropylene 96-well plates were used as pre-dilution plates. […] All dilution steps were done on a HamiltonSTAR robot. […] Identical “assay plates” were then prepared by pipetting 50 nL each of compound dilutions of the “master plates” into 384-well “assay plates” by means of a HummingBird 384-channel dispenser. These plates were used directly for the assay which was performed in a total volume of 13.55 μL.

K-562 = test: Cell growth inhibition assay (CellTiter-Glo), K-562; format: cell-based, human; conditions: K-562 cells, 4 days; for GI50: Homo sapiens, K562, 96 h, half-maximal growth inhibition; for K-562 TGI: total growth inhibition
Method in brief: as §1

BRD4 = BRD4 (Homo sapiens (Human), UniProt O60885); test: TR-FRET in-vitro binding assay for BRD4; conditions: 45 nM His-Brd4(44-477), acetyl-histone H4 (AcK 5, 8, 12, 16) peptide
Method in brief: as §2

CREBBP = CREBBP (Homo sapiens (Human), UniProt Q92793); test: AlphaScreen in-vitro binding assay for CREBBP; conditions: 324 nM His-CREBBP (1081-1197), acetyl-histone H4 (AcK 5, 8, 12) peptide
Sequence of CREBBP (Q92793 1081-1197): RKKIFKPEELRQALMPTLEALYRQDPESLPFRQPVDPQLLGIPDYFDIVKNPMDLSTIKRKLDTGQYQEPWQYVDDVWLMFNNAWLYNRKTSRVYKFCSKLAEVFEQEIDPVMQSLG
Method in brief: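 IC50 values were derived by non-linear regression of percent inhibition across 8 compound concentrations. Protein was His-tagged CREBBP bromodomain (1081-1197), peptide acetyl-histone H4 (AcK 5, 8, 12), in HEPES pH 7.5 buffer. Read-out was AlphaScreen with Ni-chelate acceptor and streptavidin donor beads, 35 min at 30° C then 60 min at RT.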

| Structure (SMILES) | GI50 (THP-1) | GI50 (MV-4-11) | IC50 (BRD3) | IC50 (BRD2) | GI50 (K-562) | IC50 (BRD4) | IC50 (CREBBP) | THP-1 TGI (THP-1) | MV-4-11 TGI (MV-4-11) | K-562 TGI (K-562) |
| --- | --- | --- | --- | --- | --- | --- | --- | --- | --- | --- |
| Cc1cc(N2C(=O)c3cc(-c4ccnc(C(F)(F)F)n4)n(C)c3C2c2ccc(Cl)cc2)cn(C)c1=O (centres unmarked) [Example 49, 6-(4-chlorophenyl)-5-(1,5-dimethyl-6-oxo-1,6-dihydropyridin-3-yl)-1-methyl-2-(2-(trifluoromethyl)pyrimidin-4-yl)-5,6-dihydropyrrolo[3,4-b]pyrrol-4(1H)-one] | 169 nM | 92.3 nM | 75 nM | 76 nM | 386 nM | 83 nM | – | 301 nM | 134 nM | >10000 nM |
| COc1ncc(-c2cc3c(n2C)C(c2ccc(Cl)cc2)N(c2cc(C)c(=O)n(C)c2)C3=O)c(OC)n1 (centres unmarked) [Example 53, 6-(4-chlorophenyl)-2-(2,4-dimethoxypyrimidin-5-yl)-5-(1,5-dimethyl-6-oxo-1,6-dihydropyridin-3-yl)-1-methyl-5,6-dihydropyrrolo[3,4-b]pyrrol-4(1H)-one] | – | – | 39 nM | 41 nM | – | 40 nM | – | – | – | – |
| Cc1cc(N2C(=O)c3cc(-c4cnc(N(C)C)nc4)n(C)c3C2c2ccc(Cl)cc2)cn(C)c1=O (centres unmarked) [Example 57, 6-(4-chlorophenyl)-5-(1,5-dimethyl-6-oxo-1,6-dihydropyridin-3-yl)-2-(2-(dimethylamino)pyrimidin-5-yl)-1-methyl-5,6-dihydropyrrolo[3,4-b]pyrrol-4(1H)-one] | 76 nM | 37.6 nM | 54 nM | 50 nM | 200 nM | 59 nM | – | 126 nM | 59.8 nM | >10000 nM |
| COc1cccc(C2c3c(ccn3C)C(=O)N2c2cc(Cl)c(=O)n(C)c2)c1 (centres unmarked) [Example 91, 5-(5-chloro-1-methyl-6-oxo-1,6-dihydropyridin-3-yl)-6-(3-methoxyphenyl)-1-methyl-5,6-dihydropyrrolo[3,4-b]pyrrol-4(1H)-one] | 466 nM | 371 nM | 667 nM | 830 nM | 1720 nM | – | – | 1002.5 nM | 641.5 nM | >10000 nM |
| COc1ccc(C2c3c(ccn3C)C(=O)N2c2cc(Cl)c(=O)n(C)c2)cc1 (centres unmarked) [Example 92, 5-(5-chloro-1-methyl-6-oxo-1,6-dihydropyridin-3-yl)-6-(4-methoxyphenyl)-1-methyl-5,6-dihydropyrrolo[3,4-b]pyrrol-4(1H)-one] | 680 nM | 655 nM | 690 nM | 850 nM | 2870 nM | 890 nM | – | 2405 nM | 1495 nM | >10000 nM |
| Cc1cc(N2C(=O)c3c(C4CC4)cn(C4CN(C)C4)c3C2c2ccc(Cl)cc2)nc2c1nnn2C (centres unmarked) [Example 106, 6-(4-chlorophenyl)-3-cyclopropyl-5-(3,7-dimethyl-3H-[1,2,3]triazolo[4,5-b]pyridin-5-yl)-1-(1-methylazetidin-3-yl)-5,6-dihydropyrrolo[3,4-b]pyrrol-4(1H)-one] | 1.16 nM | 0.522 nM | 12 nM | 13 nM | 5.68 nM | 12 nM | – | 3.335 nM | 2.23 nM | >10000 nM |

Second part, led by results:

| GI50 (THP-1) | GI50 (MV-4-11) | IC50 (BRD3) | IC50 (BRD2) | GI50 (K-562) | IC50 (BRD4) | IC50 (CREBBP) | Structure (SMILES) | THP-1 TGI (THP-1) | MV-4-11 TGI (MV-4-11) | K-562 TGI (K-562) |
| --- | --- | --- | --- | --- | --- | --- | --- | --- | --- | --- |
| 34.4 nM | 22.5 nM | 21 nM | 37 nM | 108 nM | 17 nM | – | COc1ncccc1-c1cc2c([nH]1)C(c1ccc(Cl)cc1)N(c1cc(C)c3nnc(C)n3c1)C2=O (centres unmarked) [Example 27, 6-(4-chlorophenyl)-5-(3,8-dimethyl-[1,2,4]triazolo[4,3-a]pyridin-6-yl)-2-(2-methoxypyridin-3-yl)-5,6-dihydropyrrolo[3,4-b]pyrrol-4(1H)-one] | 88 nM | 37.7 nM | >10000 nM |
| 711 nM | 150 nM | 76 nM | 91 nM | 1680 nM | 110 nM | – | Cc1cc(N2C(=O)c3cc(-c4cccc(=O)n4C)n(C)c3C2c2ccc(Cl)cc2)cn(C)c1=O (centres unmarked) [Example 48, 6-(4-chlorophenyl)-5-(1,5-dimethyl-6-oxo-1,6-dihydropyridin-3-yl)-1-methyl-2-(1-methyl-6-oxo-1,6-dihydropyridin-2-yl)-5,6-dihydropyrrolo[3,4-b]pyrrol-4(1H)-one] | 1160 nM | 270 nM | >10000 nM |
| 104 nM | 88.1 nM | 38 nM | 32 nM | 449 nM | 33 nM | – | Cc1cc(N2C(=O)c3cc(-c4cccc(N(C)C)n4)n(C)c3C2c2ccc(Cl)cc2)cn(C)c1=O (centres unmarked) [Example 51, 6-(4-chlorophenyl)-5-(1,5-dimethyl-6-oxo-1,6-dihydropyridin-3-yl)-2-(6-(dimethylamino)pyridin-2-yl)-1-methyl-5,6-dihydropyrrolo[3,4-b]pyrrol-4(1H)-one] | 165 nM | 116 nM | >10000 nM |
| 33.2 nM | 18.1 nM | 34 nM | 40 nM | 133 nM | 42 nM | – | COc1ccc(-c2cc3c(n2C)C(c2ccc(Cl)cc2)N(c2cc(C)c(=O)n(C)c2)C3=O)cn1 (centres unmarked) [Example 58, 6-(4-chlorophenyl)-5-(1,5-dimethyl-6-oxo-1,6-dihydropyridin-3-yl)-2-(6-methoxypyridin-3-yl)-1-methyl-5,6-dihydropyrrolo[3,4-b]pyrrol-4(1H)-one] | 70.4 nM | 33.8 nM | >10000 nM |
| 96.2 nM | 80.4 nM | 200 nM | 120 nM | 270 nM | 220 nM | – | Cc1cc(N2C(=O)c3cc(-c4cccn(C)c4=O)n(C4CC4)c3C2c2ccc(Cl)cc2)cn(C)c1=O (centres unmarked) [Example 65, 6-(4-chlorophenyl)-1-cyclopropyl-5-(1,5-dimethyl-6-oxo-1,6-dihydropyridin-3-yl)-2-(1-methyl-2-oxo-1,2-dihydropyridin-3-yl)-5,6-dihydropyrrolo[3,4-b]pyrrol-4(1H)-one] | 167.5 nM | 128.5 nM | >10000 nM |
| – | – | 560 nM | 740 nM | – | 695 nM | – | COc1cccc(C2c3c(ccn3C)C(=O)N2c2cc(C)c(=O)n(C)c2)c1 (centres unmarked) [Example 85, 5-(1,5-dimethyl-6-oxo-1,6-dihydropyridin-3-yl)-6-(3-methoxyphenyl)-1-methyl-5,6-dihydropyrrolo[3,4-b]pyrrol-4(1H)-one] | – | – | – |
| 34.2 nM | 31.5 nM | 29 nM | – | 181 nM | 22 nM | > 37000 nM | Cc1cc(N2C(=O)c3c(NC(=O)CN(C)C)cn(C)c3C2c2ccc(Cl)cc2)cn2c(C(F)F)nnc12 (centres unmarked) [Example 134, N-(6-(4-chlorophenyl)-5-(3-(difluoromethyl)-8-methyl-[1,2,4]triazolo[4,3-a]pyridin-6-yl)-1-methyl-4-oxo-1,4,5,6-tetrahydropyrrolo[3,4-b]pyrrol-3-yl)-2-(dimethylamino)acetamide] | 82.4 nM | 65 nM | >10000 nM |

— patent US9550796B2, “Pyrrolopyrrolone derivatives and their use as BET inhibitors” (NOVARTIS AG, priority 2013, dated 2017)
